# Measurements taken from patent US20240342292A1, “Compounds for the Degradation of EGFR Kinase” (BeiGene Switzerland GmbH, priority 2021, published 2024).
# Where “and” joins values, the source holds several entries; their conditions need not be identical. Equal values may be shown once.
# What was measured:
# [1] = system: Del19/T790M/C797S EGFR; experiment: EGFR degradation HTRF assay in H1975-clone #28 (DTC) cells; assay type: cell-based; conditions: H1975 # 28 DTC (Del19/T790M/C797S), 16h treatment; for DC50: HTRF; for Dmax (%): maximum percentage of degradation
# How it was run: (§1)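 EGFR levels quantified by HTRF on lysates after 16 h compound exposure (top 10 uM, 5-fold, 8 points) in single-cell H1975 clones expressing only exogenous mutant EGFR after sgRNA knockout of endogenous copies. DC50 derived by four-parameter logistic fitting of inhibition percentage.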
# [2] = target: T1, L858R/T790M/C797S EGFR (Homo sapiens, UniProt P00533, C797S/L858R/T790M); experiment: EGFR degradation HTRF assay in H1975-clone #25 (LTC) cells; assay type: cell-based; conditions: 16h treatment; for DC50: HTRF; for Dmax: NCI-H1975, H1975 # 25-LTC (L858R/T790M/C797S)
# T1 construct: expressed in transfected cells; host or cells: H1975 clone #25 (lentiviral over-expression, endogenous EGFR knocked out by sgRNA)
# T1 sequence (P00533 25-1210 T790M/C797S/L858R): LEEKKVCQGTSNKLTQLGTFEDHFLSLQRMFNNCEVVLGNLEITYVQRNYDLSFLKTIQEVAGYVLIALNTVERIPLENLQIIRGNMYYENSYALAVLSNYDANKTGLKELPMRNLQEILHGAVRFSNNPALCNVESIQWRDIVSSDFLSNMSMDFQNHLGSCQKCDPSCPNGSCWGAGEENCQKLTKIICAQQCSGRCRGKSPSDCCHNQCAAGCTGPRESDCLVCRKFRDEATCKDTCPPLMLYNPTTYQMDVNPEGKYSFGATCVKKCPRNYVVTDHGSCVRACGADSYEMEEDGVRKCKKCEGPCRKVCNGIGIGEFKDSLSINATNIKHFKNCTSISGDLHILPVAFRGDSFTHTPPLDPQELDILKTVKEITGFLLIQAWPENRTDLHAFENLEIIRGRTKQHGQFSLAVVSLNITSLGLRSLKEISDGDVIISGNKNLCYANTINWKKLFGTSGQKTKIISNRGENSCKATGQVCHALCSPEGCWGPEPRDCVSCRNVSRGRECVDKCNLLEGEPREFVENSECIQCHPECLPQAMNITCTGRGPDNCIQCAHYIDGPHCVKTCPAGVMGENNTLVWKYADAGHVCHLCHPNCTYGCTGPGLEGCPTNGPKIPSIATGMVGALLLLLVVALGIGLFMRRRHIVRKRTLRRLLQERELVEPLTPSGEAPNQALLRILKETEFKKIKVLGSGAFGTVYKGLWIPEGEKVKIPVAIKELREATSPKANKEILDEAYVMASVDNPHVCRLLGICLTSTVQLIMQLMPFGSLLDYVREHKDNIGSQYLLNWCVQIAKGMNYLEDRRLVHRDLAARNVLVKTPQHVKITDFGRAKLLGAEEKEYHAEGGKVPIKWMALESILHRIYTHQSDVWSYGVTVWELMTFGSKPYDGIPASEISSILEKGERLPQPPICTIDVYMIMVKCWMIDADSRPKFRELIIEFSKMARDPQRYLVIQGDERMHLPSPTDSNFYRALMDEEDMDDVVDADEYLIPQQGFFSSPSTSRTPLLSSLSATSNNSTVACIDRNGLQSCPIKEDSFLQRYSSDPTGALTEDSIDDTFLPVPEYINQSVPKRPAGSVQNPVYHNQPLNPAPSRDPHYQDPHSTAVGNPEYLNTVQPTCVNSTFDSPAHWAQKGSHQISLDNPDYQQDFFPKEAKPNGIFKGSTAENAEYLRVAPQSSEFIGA
# How it was run: as §1
# [3] = H1975 # 25-LTC (L858R/T790M/C797S)
# [4] = maximum percentage of degradation
DC50 [1],"DC50 [2, 3]","Dmax [2, 4] [%]","Dmax (%) ([2]; H1975 # 25-LTC (L858R/T790M/C797S), maximum percentage of degradation)",Compound,Dmax (%) [1]
0.607 nM,0.62 nM,90.8,–,"Cc1cc2cc(n1)-c1cnn(C)c1OCCC[C@@H](C)CN1/C(=N/C2=O)Nc2ccc(C(=O)N[C@H]3CCN(CCc4cc(F)c([C@H]5CCC(=O)NC5=O)c(F)c4)C[C@@H]3F)cc21 [Example 342, (R,E)-N—((3S,4S)-1-(4-((R)-2,6-dioxopiperidin-3-yl)-3,5-difluorophenethyl)-3-fluoropiperidin-4-yl)-1^1,2^6,7-trimethyl-3-oxo-5^2,5^3-dihydro-1^1H,5^1H-11-oxa-4-aza-5(2,1)-benzo[d]imidazola-2(2,4)-pyridina-1(4,5)-pyrazolacycloundecaphane-5^6-carboxamide]",77.52%
0.609 nM,0.599 nM,90.5,–,"Cc1cc2cc(n1)-c1cnn(C)c1OCCC[C@@H](C)CN1/C(=N/C2=O)Nc2ccc(C(=O)N[C@H]3CCN(CCc4cc(F)c([C@H]5CCC(=O)NC5=O)c(F)c4)C[C@H]3F)cc21 [Example 343, (R,E)-N—((3R,4S)-1-(4-((R)-2,6-dioxopiperidin-3-yl)-3,5-difluorophenethyl)-3-fluoropiperidin-4-yl)-1^1,2^6,7-trimethyl-3-oxo-5^2,5^3-dihydro-1^1H,5^1H-11-oxa-4-aza-5(2,1)-benzo[d]imidazola-2(2,4)-pyridina-1(4,5)-pyrazolacycloundecaphane-5^6-carboxamide]",76.11%
0.62 nM,0.386 nM,92.8,–,"Cc1cc2cc(n1)-c1cnn(C)c1OCCC[C@@H](C)CN1/C(=N/C2=O)Nc2ccc(C(=O)N(C)[C@@H]3CCN(CCc4cc(F)c([C@H]5CCC(=O)NC5=O)c(F)c4)C[C@@H]3F)cc21 [Example 344, (R,E)-N—((3S,4R)-1-(4-((R)-2,6-dioxopiperidin-3-yl)-3,5-difluorophenethyl)-3-fluoropiperidin-4-yl)-N,1^1,2^6,7-tetramethyl-3-oxo-5^2,5^3-dihydro-1^1H,5^1H-11-oxa-4-aza-5(2,1)-benzo[d]imidazola-2(2,4)-pyridina-1(4,5)-pyrazolacycloundecaphane-5^6-carboxamide]",83.22%
0.662 nM and 0.7 nM,0.634 nM and 0.6 nM,92.5,92.5,"Cc1cc2cc(n1)-c1cnn(C)c1OCCC[C@@H](C)CN1/C(=N/C2=O)Nc2ccc(C(=O)N[C@@H]3CCN(CCc4cc(F)c([C@H]5CCC(=O)NC5=O)c(F)c4)C[C@H]3F)cc21 [Example 345, (R,E)-N—((3R,4R)-1-(4-((R)-2,6-dioxopiperidin-3-yl)-3,5-difluorophenethyl)-3-fluoropiperidin-4-yl)-1^1,2^6,7-trimethyl-3-oxo-5^2,5^3-dihydro-1^1H,5^1H-11-oxa-4-aza-5(2,1)-benzo[d]imidazola-2(2,4)-pyridina-1(4,5)-pyrazolacycloundecaphane-5^6-carboxamide]",74.46% and 74.5%
0.411 nM,0.526 nM,84.8,–,"Cc1cc2cc(n1)-c1cnn(C)c1OCCC[C@@H](C)CN1/C(=N/C2=O)Nc2ccc(C(=O)N(C)[C@@H]3CCN(CCc4cc(F)c([C@H]5CCC(=O)NC5=O)c(F)c4)C[C@H]3F)cc21 [Example 346, (R,E)-N—((3R,4R)-1-(4-((R)-2,6-dioxopiperidin-3-yl)-3,5-difluorophenethyl)-3-fluoropiperidin-4-yl)-N,1^1,2^6,7-tetramethyl-3-oxo-5^2,5^3-dihydro-1^1H,5^1H-11-oxa-4-aza-5(2,1)-benzo[d]imidazola-2(2,4)-pyridina-1(4,5)-pyrazolacycloundecaphane-5^6-carboxamide]",78.78%
0.662 nM,0.614 nM,90.4,–,"Cc1cc2cc(n1)-c1cnn(C)c1OCCC[C@@H](C)CN1/C(=N/C2=O)Nc2ccc(C(=O)N(C)[C@@H]3CCN(CCNc4cc(F)c([C@H]5CCC(=O)NC5=O)c(F)c4)C[C@@H]3F)cc21 [Example 350, (R,E)-N—((3S,4R)-1-(2-((4-((R)-2,6-dioxopiperidin-3-yl)-3,5-difluorophenyl)amino)ethyl)-3-fluoropiperidin-4-yl)-N,1^1,2^6,7-tetramethyl-3-oxo-5^2,5^3-dihydro-1^1H,5^1H-11-oxa-4-aza-5(2,1)-benzo[d]imidazola-2(2,4)-pyridina-1(4,5)-pyrazolacycloundecaphane-5^6-carboxamide]",86.74%
0.561 nM,0.614 nM,91.7,–,"Cc1cc2cc(n1)-c1cnn(C)c1OCCC[C@@H](C)CN1/C(=N/C2=O)Nc2ccc(C(=O)N(C)[C@H]3CCN(CCNc4cc(F)c([C@H]5CCC(=O)NC5=O)c(F)c4)C[C@H]3F)cc21 [Example 351, (R,E)-N—((3R,4S)-1-(2-((4-((R)-2,6-dioxopiperidin-3-yl)-3,5-difluorophenyl)amino)ethyl)-3-fluoropiperidin-4-yl)-N,1^1,2^6,7-tetramethyl-3-oxo-5^2,5^3-dihydro-1^1H,5^1H-11-oxa-4-aza-5(2,1)-benzo[d]imidazola-2(2,4)-pyridina-1(4,5)-pyrazolacycloundecaphane-5^6-carboxamide]",83.91%
0.814 nM,0.847 nM,85.6,–,"Cc1cc2cc(n1)-c1cnn(C)c1OCCC[C@@H](C)CN1/C(=N/C2=O)Nc2ccc(C(=O)N(C)[C@H]3CCN(CCNc4cc(F)c([C@H]5CCC(=O)NC5=O)c(F)c4)C[C@@H]3F)cc21 [Example 352, (R,E)-N—((3S,4S)-1-(2-((4-((R)-2,6-dioxopiperidin-3-yl)-3,5-difluorophenyl)amino)ethyl)-3-fluoropiperidin-4-yl)-N,1^1,2^6,7-tetramethyl-3-oxo-5^2,5^3-dihydro-1^1H,5^1H-11-oxa-4-aza-5(2,1)-benzo[d]imidazola-2(2,4)-pyridina-1(4,5)-pyrazolacycloundecaphane-5^6-carboxamide]",79.43%
0.501 nM,0.59 nM,89.3,–,"Cc1cc2cc(n1)-c1cnn(C)c1OCCC[C@@H](C)CN1/C(=N/C2=O)Nc2ccc(N3CC(C(=O)N4CCN(c5cc(F)c([C@H]6CCC(=O)NC6=O)c(F)c5)CC4)C3)cc21 [Example 354, (R)-3-(2,6-difluoro-4-(4-(1-((R,E)-1^1,2^6,7-trimethyl-3-oxo-5^2,5^3-dihydro-1^1H,5^1H-11-oxa-4-aza-5(2,1)-benzo[d]imidazola-2(2,4)-pyridina-1(4,5)-pyrazolacycloundecaphane-5^6-yl)azetidine-3-carbonyl)piperazin-1-yl)phenyl)piperidine-2,6-dione]",72.74%
0.903 nM,0.824 nM,87.6,–,"COC[C@@H]1CN(c2cc(F)c([C@H]3CCC(=O)NC3=O)c(F)c2)CCN1C(=O)C1CCN(c2ccc3c(c2)N2C[C@H](C)CCCOc4c(cnn4C)-c4cc(cc(C)n4)C(=O)/N=C/2N3)CC1 [Example 357, (R)-3-(2,6-difluoro-4-((S)-3-(methoxymethyl)-4-(1-((R,E)-1^1,2^6,7-trimethyl-3-oxo-5^2,5^3-dihydro-1^1H,5^1H-11-oxa-4-aza-5(2,1)-benzo[d]imidazola-2(2,4)-pyridina-1(4,5)-pyrazolacycloundecaphane-5^6-yl)piperidine-4-carbonyl)piperazin-1-yl)phenyl)piperidine-2,6-dione]",73.73%
